Biological target: ABCB1 (Homo sapiens, UniProt P08183)
Assay: Correlation of ABCB1 expression with drug sensitivity across the NCI-60
Experimental: Expression levels are measured by real-time quantitative RT-PCR using the LightCycler RNA Amplification SYBR Green kit and a LightCycler machine (Roche Biochemicals, Indianapolis, Ind.). Specific oligonucleotide probes are designed for each of the ABC transporters using DNAStar Primer Select (DNASTAR Inc.), and they may be synthesized at Lofstrand Laboratories (Gaithersburg, Md.). When possible, the amplicons are designed to encompass exon-intron boundaries to avoid amplification of genomic DNA. Since the Syber Green assay detects accumulation of double stranded DNA, primers are selected (from a battery consisting of about 200 primers) that amplified a single product of the correct size.
RT-PCR is carried out on 150 ng total RNA, in the presence of 250 nM specific primers. Following reverse transcription (20 min at 50° C.), the PCR reaction consists of 45 cycles of denaturation (15 sec at 95° C.), annealing (30 sec at 58° C.), and elongation (30 sec at 72° C.). No-template (water) reaction mixtures are prepared as negative controls.
During PCR amplification, fluorescence emission is measured and recorded in real time by the LightCycler. Crossing point values are calculated, using the LightCycler software package, by the Fit Points analysis method, with baseline fluorescence set at 1. The SyberGreen assay measures accumulation of double-stranded products, and the appearance of primer dimers limits quantitation at high cycle numbers. […] The raw results are expressed as number of cycles to reach the crossing point. If the desired product is not detected, the corresponding value is adjusted to crossing points indicating no expression. To assess the contribution of experimental artifacts, selected cell lines are assessed in replicate.
Both sets are available at http://discover.nci.nih.gov. The two are combined to form a joint dataset that includes 1429 compounds.
To determine quantitatively how well the 47 genes cluster the cell lines by their tissues of origin, a statistical method is employed wherein the kappa statistic is used to indicate how well the observed clusters correspond to the nine tissue-of-origin classifications. […] To control the overall false type 1 error rate, both a step-down procedure (Westfall and Young, 1993, Resampling-Based Multiple Testing: Examples and Methods for p-value Adjustment (New York: Wiley)) and a step-up procedure (Reiner et al., 2003, Bioinformatics 19:368-375) were employed to adjust for multiple testing of all 47 genes simultaneously. In the Benjamini-Hochberg procedure the p-values are computed in the standard way by permutation, assuming that all distributions are exchangeable: the number of values in the permuted data with correlations over a threshold, divided by the number of compounds and by the number of permutations. In this analysis, the False Discovery Rate (q-value) at which each compound would be declared was calculated using the step-up procedure for positively correlated test statistics (again true because all correlations being compared are computed against the same ABC gene): in this procedure the first q-value for the largest correlation is the Bonferroni-corrected p-value for that gene; then further q-values are calculated as qj=max(pj*1429/j, qj-1). This procedure limits the expected proportion of false positives in the list 1, . . . , j to at most qj.

Chain of ABCB1 (P08183 whole entry): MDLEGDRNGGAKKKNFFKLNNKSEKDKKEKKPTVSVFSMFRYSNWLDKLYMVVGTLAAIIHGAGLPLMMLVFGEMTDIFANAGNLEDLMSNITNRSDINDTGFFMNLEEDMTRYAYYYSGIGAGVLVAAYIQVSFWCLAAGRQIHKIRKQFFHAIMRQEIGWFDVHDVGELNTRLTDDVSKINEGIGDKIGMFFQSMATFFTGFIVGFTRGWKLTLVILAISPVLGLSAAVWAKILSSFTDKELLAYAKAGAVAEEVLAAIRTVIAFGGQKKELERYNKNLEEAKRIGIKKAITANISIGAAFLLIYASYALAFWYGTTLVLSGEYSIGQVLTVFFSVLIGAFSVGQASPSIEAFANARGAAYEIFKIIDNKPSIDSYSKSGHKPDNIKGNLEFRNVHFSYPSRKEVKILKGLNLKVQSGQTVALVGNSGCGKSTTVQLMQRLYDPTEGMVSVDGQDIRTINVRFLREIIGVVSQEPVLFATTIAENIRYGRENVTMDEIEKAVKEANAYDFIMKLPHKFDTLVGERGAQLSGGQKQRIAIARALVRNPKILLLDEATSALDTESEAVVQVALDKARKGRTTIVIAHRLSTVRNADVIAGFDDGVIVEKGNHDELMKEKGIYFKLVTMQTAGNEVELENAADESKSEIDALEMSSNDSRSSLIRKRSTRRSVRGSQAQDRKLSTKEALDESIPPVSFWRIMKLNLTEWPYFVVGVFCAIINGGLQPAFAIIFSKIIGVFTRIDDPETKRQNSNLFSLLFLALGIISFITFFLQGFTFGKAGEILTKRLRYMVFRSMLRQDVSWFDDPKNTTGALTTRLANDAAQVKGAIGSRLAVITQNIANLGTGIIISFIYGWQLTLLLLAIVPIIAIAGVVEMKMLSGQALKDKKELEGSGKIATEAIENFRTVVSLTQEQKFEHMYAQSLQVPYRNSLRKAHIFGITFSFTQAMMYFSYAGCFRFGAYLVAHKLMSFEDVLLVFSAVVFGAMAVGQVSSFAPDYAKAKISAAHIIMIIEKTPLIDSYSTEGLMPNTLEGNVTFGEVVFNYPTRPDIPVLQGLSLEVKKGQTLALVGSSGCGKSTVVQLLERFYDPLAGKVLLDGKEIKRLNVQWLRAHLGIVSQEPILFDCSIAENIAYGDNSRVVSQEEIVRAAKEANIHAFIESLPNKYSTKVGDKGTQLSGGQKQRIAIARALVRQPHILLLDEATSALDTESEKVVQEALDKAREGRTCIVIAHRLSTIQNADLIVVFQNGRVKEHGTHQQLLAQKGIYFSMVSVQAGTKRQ

| Compound | Pearson's Correlation Coeff | Correlation of antiproliferative activity with ABCB1 expression | other results |
| --- | --- | --- | --- |
| COc1cccc2c1C(=O)c1c(O)c3c(c(O)c1C2=O)C[C@@](O)(C(C)=O)C[C@@H]3OC1CC(N(Cc2ccccc2)Cc2ccccc2)C(O)C(C)O1.Cl (some centres unmarked) [NSC268242] | 0.2268 |  |  |
| O=c1cc(-c2ccccc2F)[nH]c2cc3c(cc12)OCO3 [NSC656158] | 0.2218 |  |  |
| O=C(NO)c1cccc(OCc2ccc(Br)cc2)c1 [NSC692756] | 0.4093 |  |  |
| CC[C@@]1(O)C[C@H](O[C@H]2C[C@H](N(C)C)[C@H](O)[C@H](C)O2)c2c(cc3c(c2O)C(=O)c2c(O)ccc(O)c2C3=O)[C@H]1C(=O)OC [NSC267229] | 0.3505 |  |  |
| N#Cc1c(N2CCN(c3ccc([N+](=O)[O-])cc3)CC2)[n+](=O)c2ccc(Cl)cc2n1[O-] [NSC688493] | 0.2012 |  |  |
| CN(C)CCN1C(=O)c2cccc3cc([N+](=O)[O-])cc(c23)C1=O [NSC300288] | 0.2734 |  |  |
| CCOC(=O)NC1CC2CCC1(OC)C=C2C (centres unmarked) [NSC 617278] |  | 0.424 |  |
| O=C([O-])c1ccc(C(=O)[O-])c(C(=O)[O-])c1.[H+].[NH-]C1CCCCC1[NH-].[Pt+4] [NSC271674] | 0.2678 |  |  |
| NC(=O)NO [NSC32065] | 0.3336 |  |  |
| Cl.Oc1c(CN2CCCC2)ccc2cccnc12 [NSC693871] | 0.6160 | 0.6811 |  |
| CCNc1nnc(-c2ccccc2Nc2ccccc2-c2nnc(NCC)s2)s1 [NSC698459] | 0.3095 |  |  |
| CN(Cc1cnc2nc(N)nc(N)c2n1)c1ccc(C(=O)N[C@@H](CCC(=O)O)C(=O)O)c2ccccc12 [NSC174121] | 0.2662 |  |  |
| C=C1C(=O)O[C@H]2[C@H]1[C@@H](OC(=O)C=C(C)C)CC1=C[C@@H](C[C@@]3(C)O[C@@H]23)OC1=O [NSC102817] | 0.2813 |  |  |
| CCc1nc(N)nc(N)c1-c1ccc(Cl)c(N=[N+]=[N-])c1 [NSC319947] | 0.3098 |  |  |
| O=C(N[C@@H](c1ccccc1)[C@@H](O)C(=O)OCc1ccc2c(c1)OCO2)c1ccccc1 [NSC 625349] |  | 0.3935 |  |
| CC(C)=CCC[C@@H](C)C1=C(O)C(=O)C(C)=C(N)C1=O [NSC697125] | 0.5604 | 0.5358 |  |
| c1ccc(/C(=N/Nc2ccccn2)c2cccnn2)cc1 [NSC693623] | 0.2952 |  |  |
| COc1ccc(C(=O)c2cc(OC)c(OC)c(OC)c2)cc1 [NSC638498] | 0.2464 |  |  |
| C[C@]12CC[C@@H]3c4cc(OCC(F)(F)F)c(O)cc4/C(=N/O)C[C@H]3[C@@H]1CC[C@@H]2O [NSC681683] | 0.2079 |  |  |

| Compound | Pearson's Correlation Coeff | Correlation of antiproliferative activity with ABCB1 expression | other results |
| --- | --- | --- | --- |
| Nc1nc(N)c2nc(CNc3ccc(C(=O)NC(CCC(=O)O)C(=O)O)cc3F)cnc2n1.O=C(O)C(F)(F)F (centres unmarked) [NSC 607301] |  | 0.3523 |  |
| CC(C)=CCC[C@@H](C)C1=C(N)C(=O)C(C)=C(O)C1=O [NSC 697124] |  | 0.4636 |  |
| CCC1=NC(N/N=C/c2ccccc2O)=N/C1=C\c1ccccc1O [NSC 697678] |  | 0.4314 |  |
| CC[C@]12C=CCN3CCC4(c5cc([C@@]6(C(=O)OC)CC7CN(CCc8c6[nH]c6ccccc86)C[C@@H]6CCC[C@H]76)c(OC)cc5N(C)C4[C@](O)(C(=O)OC)C1OC(C)=O)C32.COS(=O)(=O)O (some centres unmarked) [NSC 651727] |  |  | Correlation: −0.3910 |
| CSc1sc(=S)sc1SC [NSC 627450] |  | 0.4454 |  |
| COc1cc(/C=C2\CCC/C(=C\c3ccc(O)c(OC)c3)C2=O)ccc1O [NSC652893] | 0.2821 |  |  |
| COc1ccc2oc(S(=O)(=O)N3CC(CCl)c4ccc([N+](=O)[O-])cc43)cc2c1 (centres unmarked) [NSC696992] | 0.2171 |  |  |
| c1cc2n(n1)CCN2 [NSC51143] | 0.4328 |  |  |
| CC(C)=CCC[C@@H](C)c1c2ncc[nH]c-2c(C)c(=O)c1O [NSC697135] | 0.4052 | 0.4249 |  |
| c1cc(-c2cn3ccsc3n2)ccn1 [NSC 641288] |  | 0.3643 |  |
| Cc1cc(C(=O)NCCN(C)C)c2nc3ccccc3cc2c1.Cl [NSC 617961] |  | 0.423 |  |
| COc1cccc2c1C(=O)c1c(O)c3c(c(O)c1C2=O)C[C@@](O)(C(=O)CO)C[C@@H]3O[C@H]1C[C@H](N)[C@H](O)[C@H](C)O1 [doxorubicin, reference compound] |  |  | Relationship between drug sensitivity and ABCB1 expression (in words): striking inverse correlations |
| O=C(/C=C/c1ccccc1)CSc1nc2ccc(I)cc2c(=O)n1Cc1ccccc1 [NSC 715729] |  | 0.3544 |  |
| C[n+]1c2ccccc2n2c3ccccc3c(NCCCn3ccnc3)c(C#N)c21.Cc1ccc(S(=O)(=O)[O-])cc1 [NSC694268] |  |  | Correlation: −0.5914 |
| S=C(N/N=C\C=N/NC(=S)N1CCCCC1)N1CCCCC1 [NSC693323] | 0.3180 |  |  |
| COC1=C2C[C@@H](C)C[C@H](OC)[C@H](O)[C@@H](C)/C=C(\C)[C@H](OC(N)=O)[C@@H](OC)/C=C\C=C(/C)C(=O)NC(=CC1=O)C2=O [geldamycin, reference compound] |  |  | Relationship between drug sensitivity and ABCB1 expression (in words): striking inverse correlations |
| Br.CCN(CC)CC[n+]1ccc2c(C)c3[nH]c4ccccc4c3c(C)c2c1.[Br-] [NSC 353076] |  |  | Correlation: −0.7983 |
| C=C(C=O)c1c2c(nc3ccccc13)C(=O)c1ccccc1C2=O [NSC694489] | 0.3742 |  |  |
| Cc1ccc(S(=O)(=O)O)cc1.N/C(=N\N=C/c1cc(Br)cc(Br)c1O)NO [NSC 371168] |  | 0.3643 |  |

| Compound | Pearson's Correlation Coeff | Correlation of antiproliferative activity with ABCB1 expression | other results |
| --- | --- | --- | --- |
| O=C1CSc2sc(=S)sc2S1 [NSC 627451] |  | 0.3894 |  |
| CC(C)(C)N1CC1CNC(=O)C(=O)NCC1CN1C(C)(C)C (centres unmarked) [NSC298276] | 0.3398 |  |  |
| CN(C)CCNc1ccc2nnn3c4ccc(Cl)cc4c(=O)c1c23 [NSC645818] | 0.3377 |  |  |
| O=C(O)Cc1cccc2c(=O)cc(-c3ccccc3)oc12 [NSC 347512] |  | 0.4109 |  |
| CC(C)=CCCC(C)c1c(O)c(O)c(C)c2nc3ccccc3nc12 (centres unmarked) [NSC697120] | 0.4167 | 0.4435 |  |
| CCc1nc(N)nc(N)c1-c1ccc(NCCc2ccccc2)c([N+](=O)[O-])c1 [NSC382049] | 0.3279 |  |  |
| COc1ccc2oc(S(=O)(=O)N3CC(CCl)c4ccc(N)cc43)cc2c1 (centres unmarked) [NSC696124] | 0.2104 |  |  |
| O=[N+]([O-])C(=C\c1cccs1)/C(=C/c1cccs1)[N+](=O)[O-] [NSC693131] | 0.2788 |  |  |
| Nc1nc(N)c2cc(CNc3ccc(C(=O)NC(CC(=O)O)C(=O)O)c(Cl)c3)ccc2n1 (centres unmarked) [NSC134033] | 0.2800 |  |  |
| CCCCc1[nH]ccc2c(C)c3nc4ccccc4c3cc12 [NSC142055] | 0.3935 |  |  |
| O=c1cc(-c2cccc(OCc3ccccc3)c2)[nH]c2cc3c(cc12)OCO3 [NSC657279] | 0.2253 |  |  |
| Cc1c(-c2ccc(-c3ccccc3F)cc2)nc2ccc(F)cc2c1C(=O)O [NSC368390] | 0.2331 |  |  |
| O=[Se](=O)c1ccccc1.O=[Se](=O)c1ccccc1.[Cu] [NSC 626670] |  | 0.4177 |  |
| CC(C)=CCC[C@@H](C)C1=C(O)C(Nc2ccccc2)=C(C)C(=O)C1=O [NSC697129] | 0.4854 | 0.4663 |  |
| CCc1nc(N)nc(N)c1-c1ccc(NC)c([N+](=O)[O-])c1 [NSC382034] | 0.3302 |  |  |
| CCc1c(CNc2ccc(C(=O)NC(CC(=O)O)C(=O)O)cc2)ccc2nc(N)nc(N)c12 (centres unmarked) [NSC184692] | 0.2971 |  |  |
| COc1ccc(C2COc3cc(O)c(O)cc3C2)cc1 (centres unmarked) [NSC600285] | 0.2935 |  |  |
| Cc1cc(N(CCOS(C)(=O)=O)CCOS(C)(=O)=O)ccc1C=Nc1ccc(-c2nc(Cc3ccccc3)sc2C)cc1 [NSC281817] | 0.2646 |  |  |
| CC1(C)C2CC1C(C(O)C1c3cc(-c4ccccn4)ncc3C3CC1C3(C)C)c1cc(-c3ccccn3)ncc12 (centres unmarked) [NSC697653] | 0.1718 |  |  |
